Test results taken from US20050282840A1, “Methods of modulating neurotrophin-mediated activity” (PainCeptor Pharma Corporation, priority 2004, published 2005).
Where two headings read alike, the source gives them in different places.

Key:
[1] = molecular target: T1, p75^NTR receptors (PC12 cells) (Rattus norvegicus, UniProt P07174); test: Basic screening assay: binding of 125I-BDNF to PC12 cells; conditions: read-out: BDNF Activity % Maximal Binding
T1 construct: endogenous in cells; host or cells: PC12 cells
T1 sequence (P07174 30-425): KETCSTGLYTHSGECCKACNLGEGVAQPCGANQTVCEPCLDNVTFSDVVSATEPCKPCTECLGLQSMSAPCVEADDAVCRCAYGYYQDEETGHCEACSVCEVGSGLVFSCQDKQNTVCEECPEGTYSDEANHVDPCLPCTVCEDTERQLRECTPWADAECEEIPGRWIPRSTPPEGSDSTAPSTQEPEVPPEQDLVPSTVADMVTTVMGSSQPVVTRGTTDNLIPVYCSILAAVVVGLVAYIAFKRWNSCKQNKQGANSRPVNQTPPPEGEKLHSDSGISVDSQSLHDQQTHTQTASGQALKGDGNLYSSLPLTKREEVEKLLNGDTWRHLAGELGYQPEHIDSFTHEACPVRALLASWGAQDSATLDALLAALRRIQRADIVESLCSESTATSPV
T1 sequence (P23560 129-247 partner): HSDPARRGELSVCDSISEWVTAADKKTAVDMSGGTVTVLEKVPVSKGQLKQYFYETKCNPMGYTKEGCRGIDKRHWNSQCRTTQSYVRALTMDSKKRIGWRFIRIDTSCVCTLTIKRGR
Procedure: (§1) The compounds were screened for effects on binding of ^125I-BDNF or ^125I-NGF to PC12 cells (p75^NTR receptors), and those that inhibited binding were further tested to determine the EC50 for this inhibition.
(§2) PC12 cells were cultured and prepared for binding assays as described in Example 1.
(§3) Lypophilized Peprotech human recombinant BDNF (Cedarlane Laboratories, Toronto, Canada, cat. # PE 450-02-10) was reconstituted under sterile conditions to 3.5 μM in sterile HKR/1%BSA, and either used immediately or stored in aliquots of 20 μl at −80° C. Immediately prior to use, a 15 nM (30×) solution of ^125I-BDNF or ^125I-NGF was prepared in HKR buffer, and was used at 0.5 nM final concentration.
(§4) Test Compounds were dissolved to 10 mM in DMSO, and those that were not initially soluble were warmed to 40-50° C. and vortexed. Those compounds that were still not in solution were reported as such. Compounds were then stored in this form at −20° C. until use. Immediately before experiments, 100 mM compounds were diluted to 10 mM in DMSO (1:10), followed by a further dilution to 1 mM (1:10) with distilled water, and a further dilution to 500 μM (1:1) with HKR.
(§5) Assays to determine maximum binding (Bmax), non-specific binding (NSB), and binding in the presence of each test compound (e.g., x, y) were performed at least in duplicate. In a total volume of 300 μL, 4×10^6 PC12 cells were incubated, rotating for 2 h at 4° C. with the following:
(§6) At the conclusion of the binding reaction, 100 μL aliquots of the reaction mixtures were carefully layered over 200 μL of a 10% glycerol solution in a 0.4 mL tube, and subjected to centrifugation in a microcentrifuge for 2 minutes at half maximum speed. The cell pellets containing the bound ^125I-BDNF or ^125I-NGF were then measured using a gamma counter. The mean values of the replicates were then calculated to determine the value for maximum binding (Bmax) and nonspecific binding (NSB), and binding in the presence of test compound at 50 μM (Bx). Specific binding (SB) was measured by subtracting the NSB from the Bmax.

[2] = tested on: p75^NTR receptors (PC12 cells); test: Basic screening assay: binding of 125I-NGF to PC12 cells; conditions: test compound 50 μM, 0.5 nM 125I-NGF, PC12 cells, 2 h at 4° C., specific binding as percent of control
Procedure: as §1, §2
Lyophilized Serotec mouse 2.5S NGF (Cedarlane Laboratories, Toronto, Canada, cat. # PMP 04Z) was reconstituted under sterile conditions to 1 mg/mL (38 μM) in sterile 0.2% acetic acid, and 100 μL or 50 μL aliquots were stored frozen at −80° C.
as §3, §4, §5
as §6, with “Bmax. Specific binding in the presence of the test compound (SBx) was determined by subtracting the NSB from the Bx for each test compound; and each SBx was divided by SB and multiplied by 100 to give the specific binding in the presence of the compound as a percent of control specific binding.” for “Bmax.”

[3] = Table 1, test compound 50 μM, 0.5 nM 125I-BDNF, PC12 cells, 2 h at 4° C., specific binding as percent of control
[4] = Table 2, test compound 50 μM, 0.5 nM 125I-BDNF, PC12 cells, 2 h at 4° C., specific binding as percent of control
[5] = Table 4, test compound 50 μM, 0.5 nM 125I-BDNF, PC12 cells, 2 h at 4° C., specific binding as percent of control

Row | SMILES | activity at 50 µM [1, 3] [%] | NGF Activity % Maximal Binding ([2]; Table 1) | activity at 50 µM [1, 5] [%] | NGF Activity % Maximal Binding ([2]; Table 4) | also measured
1 | CCOC(=O)CN1C(=O)S/C(=C/c2ccc(-c3cc(C(=O)O)ccc3C)o2)C1=O [Compound 21, 3-[5-(3-Ethoxycarbonylmethyl-2,4-dioxo-thiazolidin-5-ylidenemethyl)furan-2-yl]-4-methylbenzoic acid] | 0 to 10 | * (50 < *) |  |  | 
2 | O=C1NC(=S)S/C1=C/c1ccc(-c2ccc([N+](=O)[O-])cc2Cl)o1 [Compound 5, 5-[5-(2-Chloro-4-nitrophenyl)furan-2-ylmethylene]-2-thioxo-thiazolidin-4-one] | 0 to 10 | * (50 < *) |  |  | 
3 | CCOC(=O)c1ccc(-c2ccc(/C=C3/SC(=S)N(CC(=O)O)C3=O)o2)cc1 [Compound 68, 4-[5-(3-Carboxymethyl-4-oxo-2-thioxo-thiazolidin-5-ylidenemethyl)furan-2-yl]benzoic acid ethyl ester] |  |  |  |  | activity at 50 µM [1, 4]: 0 to 10%; NGF Activity % Maximal Binding ([2]; Table 2): XX (30 < XX < 40)
4 | O=C(O)c1ccc(Cl)c(-c2ccc(/C=C3/NC(=O)N(Cc4ccc(F)cc4)C3=O)o2)c1 [Compound 13, 4-Chloro-3-{5-[1-(4-fluorobenzyl)-2,5-dioxo-imidazolidin-4-ylidenemethyl]furan-2-yl}benzoic acid] | 0 to 10 | * (50 < *) |  |  | 
5 | Cc1cccc(N2NC(=O)/C(=C/c3ccc(-c4ccc(Cl)c([N+](=O)[O-])c4)o3)C2=O)c1 [Compound 44, 4-[5-(4-Chloro-3-nitrophenyl)furan-2-ylmethylene]-1-m-tolyl-pyrazolidine-3,5-dione] | 30 to 40 | * (50 < *) |  |  | 
6 | O=C1NC(=S)NC(=O)C1=Cc1ccc(-c2ccc([N+](=O)[O-])cc2Br)o1 [Compound 1, 5-[5-(2-Bromo-4-nitrophenyl)furan-2-ylmethylene]-2-thioxo-dihydro-pyrimidine-4,6-dione] |  | * (50 < *) |  |  | activity at 50 µM [1]: 0 to 10%
7 | COCCN1C(=O)C(=Cc2ccc(-c3ccc([N+](=O)[O-])cc3)o2)SC1=S [Compound 120, 3-(2-Methoxy-ethyl)-5-[5-(4-nitrophenyl)furan-2-ylmethylene]-2-thioxo-thiazolidin-4-one] |  |  | > 50 | * (50 < *) | 
8 | Cc1cc([N+](=O)[O-])ccc1-c1ccc(C=C2SC(=S)N(CC(=O)O)C2=O)o1 [Compound 40, {5-[5-(2-Methyl-4-nitrophenyl)furan-2-ylmethylene]-4-oxo-2-thioxo-thiazolidin-3-yl}-acetic acid] | 20 to 30 | * (50 < *) |  |  | 
9 | COc1cc([N+](=O)[O-])ccc1-c1ccc(/C=C2/SC(=S)N(C)C2=O)o1 [Compound 60, 5-[5-(2-Methoxy-4-nitrophenyl)furan-2-ylmethylene]-3-methyl-2-thioxo-thiazolidin-4-one] | 40 to 50 | * (50 < *) |  |  | 
10 | COC(=O)c1cccc(-c2ccc(C=C3C(=O)NC(=S)NC3=O)o2)c1 [Compound 107, 3-[5-(4,6-Dioxo-2-thioxo-tetrahydro-pyrimidin-5-ylidenemethyl)furan-2-yl]benzoic acid methyl ester] |  |  |  | * (50 < *) | activity at 50 µM [1]: > 50%
11 | COC(=O)c1cccc(-c2ccc(/C=C3/NC(=O)N(Cc4ccccc4F)C3=O)o2)c1C [Compound 139, 3-{5-[1-(2-Fluorobenzyl)-2,5-dioxo-imidazolidin-4-ylidenemethyl]furan-2-yl}-2-methylbenzoic acid methyl ester] |  |  | > 50 | * (50 < *) | 
12 | CCN1C(=O)S/C(=C/c2ccc(-c3ccc(C(=O)O)cc3)o2)C1=O [Compound 73, 4-[5-(3-Ethyl-2,4-dioxo-thiazolidin-5-ylidenemethyl)furan-2-yl]benzoic acid] |  |  |  |  | activity at 50 µM [1, 4]: 0 to 10%; NGF Activity % Maximal Binding ([2]; Table 2): X (40 < X < 50)
13 | CN1C(=O)S/C(=C/c2ccc(-c3ccc(C(=O)O)c(Cl)c3)o2)C1=O [Compound 80, 2-Chloro-4-[5-(3-methyl-2,4-dioxo-thiazolidin-5-ylidenemethyl)furan-2-yl]benzoic acid] |  |  |  |  | activity at 50 µM [1, 4]: 10 to 20%; NGF Activity % Maximal Binding ([2]; Table 2): X (40 < X < 50)
14 | COC(=O)c1ccc(-c2ccc(/C=C3/NC(=O)N(c4cccc(Cl)c4)C3=O)o2)cc1 [Compound 128, 4-{5-[1-(3-Chlorophenyl)-2,5-dioxo-imidazolidin-4-ylidenemethyl]furan-2-yl}benzoic acid methyl ester] |  |  | > 50 | * (50 < *) | 
15 | Cc1ccc(C(=O)O)cc1-c1ccc(/C=C2/NC(=O)NC2=O)o1 [Compound 22, 3-[5-(2,5-Dioxo-imidazolidin-4-ylidenemethyl)furan-2-yl]-4-methylbenzoic acid] | 0 to 10 | * (50 < *) |  |  | 
16 | COC(=O)CN1C(=O)S/C(=C/c2ccc(-c3ccc(C(=O)O)c(Cl)c3)o2)C1=O [Compound 67, 2-Chloro-4-[5-(3-methoxycarbonylmethyl-2,4-dioxo-thiazolidin-5-ylidenemethyl)furan-2-yl]benzoic acid] |  |  |  |  | activity at 50 µM [1, 4]: 0 to 10%; NGF Activity % Maximal Binding ([2]; Table 2): XX (30 < XX < 40)
17 | O=C1NC(=O)C(=Cc2ccc(-c3cccc([N+](=O)[O-])c3)o2)S1 [Compound 87, 5-[5-(3-Nitrophenyl)furan-2-ylmethylene]-thiazolidine-2,4-dione] |  |  | > 50 | * (50 < *) | 
18 | CCOC(=O)CN1C(=O)S/C(=C/c2ccc(-c3ccc([N+](=O)[O-])cc3Cl)o2)C1=O [Compound 132, {5-[5-(2-Chloro-4-nitrophenyl)furan-2-ylmethylene]-2,4-dioxo-thiazolidin-3-yl}-acetic acid ethyl ester] |  |  | > 50 | * (50 < *) | 
19 | O=C1NC(=S)N/C1=C/c1ccc(-c2ccc([N+](=O)[O-])cc2Cl)o1 [Compound 47, 5-[5-(2-Chloro-4-nitrophenyl)furan-2-ylmethylene]-2-thioxo-imidazolidin-4-one] | 30 to 40 | * (50 < *) |  |  | 
20 | O=C1C(=Cc2ccc(-c3ccc([N+](=O)[O-])cc3)o2)SC(=S)N1c1ccc(O)cc1 [Compound 142, 3-(4-Hydroxyphenyl)-5-[5-(4-nitrophenyl)furan-2-ylmethylene]-2-thioxo-thiazolidin-4-one] |  |  | > 50 | * (50 < *) | 
